Test results as given in US9040691B2, “Hydroxymethylaryl-substituted pyrrolotriazines as ALK1 inhibitors” (BAYER INTELLECTUAL PROPERTY GMBH, priority 2011, dated 2015).

What follows are compounds tested against ALK1 kinase (Homo sapiens (Human), UniProt P37023) (assay: In vitro enzyme inhibition using scintillation of incorporated radio label (flashplate assay)). Settings: biotinylated α-casein, 33P-ATP, 500 nM ATP.
Chain of ALK1 kinase (P37023 22-503): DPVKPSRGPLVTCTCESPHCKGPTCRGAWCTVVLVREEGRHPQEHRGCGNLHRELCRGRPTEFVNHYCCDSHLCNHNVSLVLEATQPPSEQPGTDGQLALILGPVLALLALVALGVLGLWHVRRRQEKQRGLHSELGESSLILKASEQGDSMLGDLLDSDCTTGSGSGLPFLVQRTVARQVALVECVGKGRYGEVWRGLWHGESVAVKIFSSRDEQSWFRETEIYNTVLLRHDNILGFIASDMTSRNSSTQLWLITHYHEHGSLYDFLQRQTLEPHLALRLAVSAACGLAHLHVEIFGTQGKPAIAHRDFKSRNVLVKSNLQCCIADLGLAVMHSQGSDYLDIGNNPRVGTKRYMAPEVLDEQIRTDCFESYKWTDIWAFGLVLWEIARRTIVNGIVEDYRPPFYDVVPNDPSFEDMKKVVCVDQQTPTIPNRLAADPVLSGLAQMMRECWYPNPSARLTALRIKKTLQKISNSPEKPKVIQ
Type: biochemical
An IC50 of 2 nM was found for `CCCc1cc(-c2ccc(CO)cc2)c2c(N)ncnn12` [Example 1, [4-(4-Amino-7-propylpyrrolo[2,1-f][1,2,4]triazin-5-yl)phenyl]methanol] in this work.
An IC50 of 2.8 nM was found for `CCCc1cc(-c2cc(F)c(CO)c(F)c2)c2c(N)ncnn12` [Example 2, [4-(4-Amino-7-propylpyrrolo[2,1-f][1,2,4]triazin-5-yl)-2,6-difluorophenyl]methanol] in this work.
An IC50 of 4 nM was found for `Nc1ncnn2c(CCCO)cc(-c3ccc(CO)cc3)c12` [Example 3, 3-{4-Amino-5-[4-(hydroxymethyl)phenyl]pyrrolo[2,1-f][1,2,4]triazin-7-yl}propan-1-ol] in this work.
An IC50 of 1.3 nM was found for `Nc1ncnn2c(C(O)C3CC3)cc(-c3cc(F)c(CO)c(F)c3)c12` (stereo not shown) [Example 5, {4-Amino-5-[3,5-difluoro-4-(hydroxymethyl)phenyl]pyrrolo[2,1-f][1,2,4]triazin-7-yl}(cyclopropyl)methanol] in this work.
An IC50 of 2 nM was found for `Nc1ncnn2c1c(-c1cc(F)c(CO)c(F)c1)cc2[C@H]1CC[C@H](O)CC1` [Example 7, trans-4-[4-Amino-5-[3,5-difluoro-4-(hydroxymethyl)phenyl]pyrrolo[2,1-f][1,2,4]triazin-7-yl]-cyclohexanol] in this work.
An IC50 of 1.9 nM was found for `Nc1ncnn2c([C@@H]3CCCNC3)cc(-c3cc(F)c(CO)c(F)c3)c12` [Example 11, (4-{4-Amino-7-[(3R)-piperidin-3-yl]pyrrolo[2,1-f][1,2,4]triazin-5-yl}-2,6-difluorophenyl)methanol] in this work.
An IC50 of 2 nM was found for `Nc1nc(-c2cc(-c3ccc(CO)cc3)c3c(N)ncnn23)cs1` [Example 17, {4-[4-Amino-7-(2-amino-1,3-thiazol-4-yl)pyrrolo[2,1-f][1,2,4]triazin-5-yl]phenyl}methanol] in this work.
An IC50 of 30 nM was found for `Nc1ncnn2c(CN3CCOCC3)cc(-c3cc(F)c(CO)c(F)c3)c12` [Example 20, {4-[4-Amino-7-(morpholin-4-ylmethyl)pyrrolo[2,1-f][1,2,4]triazin-5-yl]-2,6-difluorophenyl}-methanol] in this work.
An IC50 of 25 nM was found for `Nc1ncnn2c(CN3CCOCC3)cc(-c3ccc(CO)c(F)c3)c12` [Example 21, {4-[4-Amino-7-(morpholin-4-ylmethyl)pyrrolo[2,1-f][1,2,4]triazin-5-yl]-2-fluorophenyl}methanol] in this work.
An IC50 of 17 nM was found for `Nc1ncnn2c(CN3CCOCC3)cc(-c3ccc(CO)c(Cl)c3)c12` [Example 22, {4-[4-Amino-7-(morpholin-4-ylmethyl)pyrrolo[2,1-f][1,2,4]triazin-5-yl]-2-chlorophenyl}methanol] in this work.
